For eight compounds, pest or weed control, YFM and YFM rating results are on record in patent publication US20250228239A1, “MOLECULES HAVING PESTICIDAL UTILITY, AND INTERMEDIATES, COMPOSITIONS, AND PROCESSES, RELATED THERETO” (priority 2024, published 2025).

Read-outs that look alike come from different tables or passages of the source.

What all share (format): in vivo
Assay [1] deals with Beet Armyworm (Spodoptera exigua, LAPHEG). In words: Bioassays on Beet Armyworm (BAW), 128-well diet tray assay. Conditions: Spodoptera exigua. In outline:
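Larvae at second instar are exposed on dried, compound-treated diet (50 μg/cm^2, delivered in 90:10 acetone-water) in eight replicate wells. After five to seven days at 25° C., 14:10 light-dark, percent mortality in each well is scored and the eight wells averaged.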

The test system of assay [2] is Cabbage Looper (Trichoplusia ni, TRIPNI). In words: Bioassays on Cabbage Looper (CL), 128-well diet tray assay. Conditions: Trichoplusia ni. In outline: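 One to five second-instar larvae per well on artificial diet surface-treated with 50 μg/cm^2 test molecule (applied in 90:10 acetone-water, dried). Held 5–7 days at 25° C, 14:10 light-dark; percent mortality recorded per well and averaged over eight wells.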

The subject of assay [3] is Yellow Fever Mosquito (Aedes aegypti, AEDSAE). Conditions: for YFM rating: Table ABC / ABC-DP rating. The gist of the method:
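Larvae ~1 day old, in liver powder/water; compound from 4000 ppm DMSO stock diluted with water/acetone (90:10); 6 reps; lidded, RT, 3 d; mortality scored per well, rated.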

[4] abbreviates: Beet Armyworm, rating class, read-out: BAW.
[5] abbreviates: Cabbage Looper, rating class, read-out: CL.
Setting [6] is: Yellow Fever Mosquito, rating class.
Where [7] appears, read: Beet Armyworm, Table ABC / ABC-DP rating, read-out: BAW rating.
[8] abbreviates: Cabbage Looper, Table ABC / ABC-DP rating, read-out: CL rating.

On to `O=C(Nc1ccccc1)c1c(Cl)ccc(NC(=O)[C@H]2[C@H](c3ccc(F)c(Cl)c3)C2(Cl)Cl)c1F` [F1466, 6-Chloro-3-((1R,3R)-2,2-dichloro-3-(3-chloro-4-fluorophenyl)cyclopropane-1-carboxamido)-2-fluoro-N-phenylbenzamide], for which the pest or weed control at 50 µg/cm2 in assay [1] (setting [4]) and in assay [2] (setting [5]) was 50 to 100% throughout. For the same compound, in assay [3] (setting [6]), the YFM result is “A (80–100)”.

Consider `CN(NC(=O)c1cc(NC(=O)[C@H]2[C@H](c3cc(Cl)cc(Cl)c3)C2(Cl)Cl)ccc1Cl)c1ccccc1` [F2510, (1R,3R)-2,2-Dichloro-N-(4-chloro-3-(2-methyl-2-phenylhydrazine-1-carbonyl)phenyl)-3-(3,5-dichlorophenyl)cyclopropane-1-carboxamide], for which the pest or weed control at 50 µg/cm2 in assay [1] (setting [7]) and in assay [2] (setting [8]) was 50 to 100% in each case. Also, the YFM rating result in assay [3] (Yellow Fever Mosquito) is “A (80–100)”.

For `O=C(Nc1ccc(F)c(NC(=O)C(F)F)c1F)c1cc(NC(=O)[C@H]2[C@H](c3cccc(C(F)(F)F)c3)C2(Cl)Cl)ccc1Cl` [F1675, 2-Chloro-5-((1R,3R)-2,2-dichloro-3-(3-(trifluoromethyl)phenyl)cyclopropane-1-carboxamido)-N-(3-(2,2-difluoroacetamido)-2,4-difluorophenyl)benzamide], the pest or weed control at 50 µg/cm2 in assay [1] (setting [4]) and in assay [2] (setting [5]) was 50 to 100% in each case. In addition, the YFM result in assay [3] (setting [6]) is “A (80–100)”.

For `CN(C(=O)c1cc(NC(=O)[C@H]2[C@H](c3ccc(Cl)c(Cl)c3)C2(Cl)Cl)ccc1Cl)c1ccc(F)c(NC(=O)COC(F)(F)F)c1F` [F1793, 2-Chloro-5-((1R,3R)-2,2-dichloro-3-(3,4-dichlorophenyl)cyclopropane-1-carboxamido)-N-(2,4-difluoro-3-(2-(trifluoromethoxy)acetamido)phenyl)-N-methylbenzamide], the pest or weed control at 50 µg/cm2 in assay [1] (setting [7]) and in assay [2] (setting [8]) was 50 to 100% in each case. Further, in assay [3] (Yellow Fever Mosquito), the YFM rating entry was “A (80–100)”.

On to `O=C(Nc1ccc(F)c(I)c1F)c1cc(NC(=O)[C@H]2[C@H](c3ccc(F)c(C(F)(F)F)c3)C2(Cl)Cl)ccc1Cl` [F1758, 2-Chloro-5-((1R,3R)-2,2-dichloro-3-(4-fluoro-3-(trifluoromethyl)phenyl)cyclopropane-1-carboxamido)-N-(2,4-difluoro-3-iodophenyl)benzamide], for which the pest or weed control at 50 µg/cm2 in assay [1] (setting [4]) and in assay [2] (setting [5]) was 50 to 100% in each case. Also, the YFM entry in assay [3] (setting [6]) is “A (80–100)”.

As to `O=C(Nc1ccc(F)cc1Br)c1cc(NC(=O)[C@H]2[C@H](c3cc(Cl)cc(Cl)c3)C2(Cl)Cl)ccc1Cl` (relative stereo) [F1305, trans-N-(2-Bromo-4-fluorophenyl)-2-chloro-5-(2,2-dichloro-3-(3,5-dichlorophenyl)cyclopropane-1-carboxamido)benzamide], the pest or weed control at 50 µg/cm2 in assay [1] (Table ABC: Biological Results, species BAW, read-out: BAW) was in the range of 50 to 100%; in assay [2] (Table ABC: Biological Results, species CL, read-out: CL) it was 50 to 100%. Further, the YFM entry in assay [3] (Table ABC: Biological Results, species YFM) is reported as “A (80–100)”.

`O=C(NCC(F)(F)F)c1cc(NC(=O)[C@H]2[C@H](c3cc(Br)cc(S(F)(F)(F)(F)F)c3)C2(Cl)Cl)ccc1Cl` (relative stereo) [F2008, trans-5-(3-(3-Bromo-5-(pentafluoro-λ^6-sulfanyl)phenyl)-2,2-dichlorocyclopropane-1-carboxamido)-2-chloro-N-(2,2,2-trifluoroethyl)benzamide]: the pest or weed control at 50 µg/cm2 in assay [1] (setting [7]) and in assay [2] (setting [8]) was 50 to 100% in each case. In addition, the YFM rating result in assay [3] (Yellow Fever Mosquito) was “A (80–100)”.

With `CN(C(=O)c1cc(NC(=O)[C@H]2[C@H](c3ccc(Cl)c(Cl)c3)C2(Cl)Cl)ccc1Cl)N(C)c1ccccc1` [F2544, (1R,3R)-2,2-Dichloro-N-(4-chloro-3-(1,2-dimethyl-2-phenylhydrazine-1-carbonyl)phenyl)-3-(3,4-dichlorophenyl)cyclopropane-1-carboxamide], the pest or weed control at 50 µg/cm2 in assay [1] (setting [7]) and in assay [2] (setting [8]) was 50 to 100% throughout. Further, the YFM rating result in assay [3] (Yellow Fever Mosquito) is on record as “A (80–100)”.
